# Test results as given in US20110053773A1, “METHODS OF IMPROVING NUTRITIONAL VALUE OF PLANTS” (UNIVERSITY OF TENNESSEE RESEARCH FOUNDATION, priority 2009, published 2011).
# What was measured:
# Format in all cases: in vivo
# basil 'Genovese' = test: Content analysis of basil: protein, minerals (Example 4, Tables 10-11); settings: 28 DA-A, rates g ai/ha: chlropyrifos 1120, chlorothalonil 2630, paclobutrazol 3.23, mepiquat-chloride 12.3, Isoxadifen 8, Napthalic anhydride 264, + NIS 0.25 % v/v
# Method in brief: (§1)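 Plants received postemergence sprays of one insecticide, one fungicide, two PGRs or two safeners in the greenhouse. About 4 weeks later they were harvested, and replicates were pooled for laboratory content analysis. Injury was rated visually on a 0–100% scale.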
# kale 'Red Russian' = test: Content analysis of kale: protein, amino acids, fiber, fatty acids, minerals (Example 4, Tables 12-14); settings: 28 DA-A; for Alanine, Percent Increase over the Untreated Check (on a % dry matter basis) / Aspartic acid, Percent Increase over the Untreated Check (on a % dry matter basis) / Cysteine, Percent Increase over the Untreated Check (on a % dry matter basis) / Glutamic acid, Percent Increase over the Untreated Check (on a % dry matter basis) / Glycine, Percent Increase over the Untreated Check (on a % dry matter basis) / Iso-leucine, Percent Increase over the Untreated Check (on a % dry matter basis) / Leucine, Percent Increase over the Untreated Check (on a % dry matter basis) / Lysine, Percent Increase over the Untreated Check (on a % dry matter basis) / Methionine, Percent Increase over the Untreated Check (on a % dry matter basis) / Proline, Percent Increase over the Untreated Check (on a % dry matter basis) / Threonine, Percent Increase over the Untreated Check (on a % dry matter basis) / Total Amino acids, Percent Increase over the Untreated Check (on a % dry matter basis) / Total Protein, Percent Increase over the Untreated Check (on a % dry matter basis) / Valine, Percent Increase over the Untreated Check (on a % dry matter basis): chlorothalonil ###
# Experimental: (§2) Greenhouse and laboratory studies were conducted to ascertain the tolerance and nutritional quality differences following postemergence applications of the insecticide chlorpyrifos, the fungicide chlorothalonil, the PGRs mepiquat-chloride and paclobutrazol, and the safeners napthalic anhydride and isoxadifen-ethyl on kale ‘Red Russian’ and basil ‘Genovese’. Visual injury was rated based on general phytotoxicity, chlorosis, and visual stunting and each measurement was based on a percent scale from 0 to 100 where 0 equals no visual response and 100 equals complete plant death. Kale and basil were both harvested approximately 4 weeks after treatments and plants were pooled over replicates for content analysis of crude protein, crude amino acid content, acid detergent fiber, neutral detergent fiber, total fatty acids, and/or key mineral content (including Na, Ca, P, Mg, K, Fe, Mn, Zn, and Cu). In addition, the amounts of key individual amino acids (aspartic acid, threonine, glutamic acid, proline, glycine, cysteine, valine, leucine, isoleucine, methionine, and lysine) and composite classifications of fatty acid (saturated fatty acids, monounsaturated fatty acids, polyunsaturated fatty acids) were also analyzed from these sub-samples for kale (Tables 10-14).
# basil ‘Genovese’ = test: Yield, fresh weight of basil after insecticide, fungicide, PGRs and safeners (Example 4, Table 10); settings: DA-A, check 31.8
# Method in brief: as §1
# kale ‘Red Russian’ = test: Yield, fresh weight of kale after insecticide, fungicide and PGRs (Example 4, Table 12); settings: 28 DA-A, Untreated Check 106.9
# Experimental: as §2
# [1] = first-listed rate g ai/ha: chlropyrifos ###, paclobutrazol 3.2, mepiquat-chloride 12, + NIS 0.3 % v/v
# [2] = rates g ai/ha: chlropyrifos 1120, chlorothalonil 2630, paclobutrazol 3.23, mepiquat-chloride 12.3, + NIS 0.25 % v/v
# [3] = rates g ai/ha: chlropyrifos 3370, chlorothalonil 7900, paclobutrazol 9.7, mepiquat-chloride 37, + NIS 0.25 % v/v
# [4] = second-listed rate g ai/ha: chlropyrifos ###, paclobutrazol 9.7, mepiquat-chloride 37, + NIS 0.3 % v/v
smiles,measurement,setting,value
N#Cc1c(Cl)c(Cl)c(Cl)c(C#N)c1Cl [chlorothalonil],"Protein, Percent Increase Over the Untreated Check (on a % dry matter basis)",basil 'Genovese',3 % check
same,"Sodium, Percent Increase Over the Untreated Check (on a % dry matter basis)",basil 'Genovese',8 % check
same,"Soluble protein, Percent Increase Over the Untreated Check (on a % dry matter basis)",basil 'Genovese',223 % check
same,"Zinc, Percent Increase Over the Untreated Check (on a % dry matter basis)",basil 'Genovese',38 % check
same,"Alanine, Percent Increase over the Untreated Check (on a % dry matter basis)",kale 'Red Russian'; [1],3 % check
same,"Aspartic acid, Percent Increase over the Untreated Check (on a % dry matter basis)",kale 'Red Russian'; [1],2 % check
same,"Cysteine, Percent Increase over the Untreated Check (on a % dry matter basis)",kale 'Red Russian'; [1],−6 % check
same,"Glutamic acid, Percent Increase over the Untreated Check (on a % dry matter basis)",kale 'Red Russian'; [1],5 % check
same,"Glycine, Percent Increase over the Untreated Check (on a % dry matter basis)",kale 'Red Russian'; [1],0 % check
same,"Iso-leucine, Percent Increase over the Untreated Check (on a % dry matter basis)",kale 'Red Russian'; [1],4 % check
same,"Leucine, Percent Increase over the Untreated Check (on a % dry matter basis)",kale 'Red Russian'; [1],4 % check
same,"Lysine, Percent Increase over the Untreated Check (on a % dry matter basis)",kale 'Red Russian'; [1],5 % check
same,"Methionine, Percent Increase over the Untreated Check (on a % dry matter basis)",kale 'Red Russian'; [1],2 % check
same,"Proline, Percent Increase over the Untreated Check (on a % dry matter basis)",kale 'Red Russian'; [1],6 % check
same,"Threonine, Percent Increase over the Untreated Check (on a % dry matter basis)",kale 'Red Russian'; [1],3 % check
same,"Total Amino acids, Percent Increase over the Untreated Check (on a % dry matter basis)",kale 'Red Russian'; [1],3 % check
same,"Total Protein, Percent Increase over the Untreated Check (on a % dry matter basis)",kale 'Red Russian'; [1],1 % check
same,"Valine, Percent Increase over the Untreated Check (on a % dry matter basis)",kale 'Red Russian'; [1],4 % check
same,"ADF, Percent Increase Over the Untreated Check (on a % dry matter basis)",kale 'Red Russian'; [2],9 % check
same,"Calcium, Percent Increase Over the Untreated Check (on a % dry matter basis)",kale 'Red Russian'; [2],−6 % check
same,"Copper, Percent Increase Over the Untreated Check (on a % dry matter basis)",kale 'Red Russian'; [2],6 % check
same,"Iron, Percent Increase Over the Untreated Check (on a % dry matter basis)",kale 'Red Russian'; [2],−1 % check
same,"Magnesium, Percent Increase Over the Untreated Check (on a % dry matter basis)",kale 'Red Russian'; [2],−3 % check
same,"Manganese, Percent Increase Over the Untreated Check (on a % dry matter basis)",kale 'Red Russian'; [2],3 % check
same,"NDF, Percent Increase Over the Untreated Check (on a % dry matter basis)",kale 'Red Russian'; [2],−8 % check
same,"Phosphorous, Percent Increase Over the Untreated Check (on a % dry matter basis)",kale 'Red Russian'; [2],0 % check
same,"Potassium, Percent Increase Over the Untreated Check (on a % dry matter basis)",kale 'Red Russian'; [2],−9 % check
same,"Sodium, Percent Increase Over the Untreated Check (on a % dry matter basis)",kale 'Red Russian'; [2],4 % check
same,"Zinc, Percent Increase Over the Untreated Check (on a % dry matter basis)",kale 'Red Russian'; [2],−4 % check
same,"ADF, Percent Increase Over the Untreated Check (on a % dry matter basis)",kale 'Red Russian'; [3],0 % check
same,"Calcium, Percent Increase Over the Untreated Check (on a % dry matter basis)",kale 'Red Russian'; [3],−1 % check
same,"Copper, Percent Increase Over the Untreated Check (on a % dry matter basis)",kale 'Red Russian'; [3],6 % check
same,"Iron, Percent Increase Over the Untreated Check (on a % dry matter basis)",kale 'Red Russian'; [3],−3 % check
same,"Magnesium, Percent Increase Over the Untreated Check (on a % dry matter basis)",kale 'Red Russian'; [3],−3 % check
same,"Manganese, Percent Increase Over the Untreated Check (on a % dry matter basis)",kale 'Red Russian'; [3],4 % check
same,"NDF, Percent Increase Over the Untreated Check (on a % dry matter basis)",kale 'Red Russian'; [3],−5 % check
same,"Phosphorous, Percent Increase Over the Untreated Check (on a % dry matter basis)",kale 'Red Russian'; [3],−3 % check
same,"Potassium, Percent Increase Over the Untreated Check (on a % dry matter basis)",kale 'Red Russian'; [3],−3 % check
same,"Sodium, Percent Increase Over the Untreated Check (on a % dry matter basis)",kale 'Red Russian'; [3],23 % check
same,"Zinc, Percent Increase Over the Untreated Check (on a % dry matter basis)",kale 'Red Russian'; [3],−3 % check
same,"Alanine, Percent Increase over the Untreated Check (on a % dry matter basis)",kale 'Red Russian'; [4],−5 % check
same,"Aspartic acid, Percent Increase over the Untreated Check (on a % dry matter basis)",kale 'Red Russian'; [4],−4 % check
same,"Cysteine, Percent Increase over the Untreated Check (on a % dry matter basis)",kale 'Red Russian'; [4],−6 % check
same,"Glutamic acid, Percent Increase over the Untreated Check (on a % dry matter basis)",kale 'Red Russian'; [4],−5 % check
same,"Glycine, Percent Increase over the Untreated Check (on a % dry matter basis)",kale 'Red Russian'; [4],−7 % check
same,"Iso-leucine, Percent Increase over the Untreated Check (on a % dry matter basis)",kale 'Red Russian'; [4],−2 % check
same,"Leucine, Percent Increase over the Untreated Check (on a % dry matter basis)",kale 'Red Russian'; [4],−1 % check
same,"Lysine, Percent Increase over the Untreated Check (on a % dry matter basis)",kale 'Red Russian'; [4],−3 % check
same,"Methionine, Percent Increase over the Untreated Check (on a % dry matter basis)",kale 'Red Russian'; [4],−2 % check
same,"Proline, Percent Increase over the Untreated Check (on a % dry matter basis)",kale 'Red Russian'; [4],−3 % check
same,"Threonine, Percent Increase over the Untreated Check (on a % dry matter basis)",kale 'Red Russian'; [4],−1 % check
same,"Total Amino acids, Percent Increase over the Untreated Check (on a % dry matter basis)",kale 'Red Russian'; [4],−4 % check
same,"Total Protein, Percent Increase over the Untreated Check (on a % dry matter basis)",kale 'Red Russian'; [4],−3 % check
same,"Valine, Percent Increase over the Untreated Check (on a % dry matter basis)",kale 'Red Russian'; [4],−3 % check
same,Yield Fresh weight,"basil ‘Genovese’; rates g ai/ha: chlropyrifos 1120, chlorothalonil 2630, paclobutrazol 3.23, mepiquat-chloride 12.3, Isoxadifen 8, Napthalic anhydride 264, + NIS 0.25 % v/v",27.5 grams
same,Yield Fresh weight,"basil ‘Genovese’; rates g ai/ha: chlropyrifos 3370, chlorothalonil 7900, paclobutrazol 9.7, mepiquat-chloride 37, Isoxadifen 16, Napthalic anhydride 527, + NIS 0.25 % v/v",25.9 grams
same,Yield Fresh weight,kale ‘Red Russian’; [2],102.5 grams
same,Yield Fresh weight,kale ‘Red Russian’; [3],107.5 grams
